In EPA's ToxValDB 9.5 (doi:10.2903/j.efsa.2009.297r):
Values after ≈ are worked out from the molar mass of the structure shown. Values joined by “and” are separate entries in the source; they are usually repeats but may differ in a detail not shown here. Equal entries are not always repeated.

What was measured:
Salmo trutta ssp. fario = settings: acute; duration: 96 hours; mortality
Oryctolagus sp. = settings: developmental; development
Rattus norvegicus = settings: oral
Apis mellifera = settings: acute; dermal; mortality
Adalia sp. = settings: not reported; reproduction
Canidae = settings: chronic; duration: 1 years; oral; Dog Other; body weight
[1] = reproductive
Oncorhynchus mykiss = settings: chronic/long-term; duration: 28 days
Tagia sp. = settings: mortality

With O=C1c2ccccc2C(=O)N1SC(Cl)(Cl)Cl [Folpet] the LC50 (Salmo trutta ssp. fario) was 0.098 µg/mL (≈ 0.33 µM), the NOAEL (Oryctolagus sp.) was 10 mg/kg-day and 20 mg/kg-day and the LD50 (Rattus norvegicus; acute, mortality) was greater than 2000 mg/kg. It also gave an NOAEL (Rattus norvegicus; chronic, duration: 2 years, diet, body weight) of 10 mg/kg-day, an LC50 (Coturnix coturnix; acute, oral, diet, mortality) greater than 1130 mg/kg-day and an LD50 (Coturnix coturnix; acute, oral, mortality) greater than 2510 mg/kg. For the same compound, the NOEC (Coturnix coturnix; reproduction developmental, reproduction) was 78.3 mg/kg-day, the LD50 (Apis mellifera) was greater than 200 µg/piece and the LEL (Adalia sp.) was 530 g/ha. The NOAEL (Canidae) was 10 mg/kg-day, the NOEC [1] was 1500 mg/kg and the LC50 (Oncorhynchus mykiss) was 0.11 µg/mL (≈ 0.371 µM). The NOEC (Anas platyrhynchos; reproductive) was 90 mg/kg-day, the LC50 (Anas platyrhynchos; short-term, oral, feed, mortality) was greater than 746 mg/kg-day and the LC50 (Tagia sp.; acute, duration: 14 days) was greater than 1000 mg/kg. The NOEC (Tagia sp.; chronic/long-term) was 5.18 mg/kg.
